The source of these data is article PMC4104029, “Mechanism of Action of Compound-13: An α1-Selective Small Molecule Activator of AMPK” (Chemistry & Biology, 2014).

One assay deals with Yeast acetate CoA ligase. As to the kind of experiment: Acetate CoA ligase assay. Type of assay: biochemical. Particulars: 0–100 μM. The text has this:
(Needleman and Wunsch, 1970) and edited using ESPript (Gouet, et al., 2003). Secondary structure was derived from PDBID 2Y94. The phosphotransferase domain is shaded green (T-loop phosphorylation site is indicated with a star), the autoinhibitory domain in blue and the C-terminal domain in yellow. Regulatory elements in the α-linker are also indicated: α-hook in pink and α-RIMs in orange. Black lines indicate the position of the epitopes recognised by α-subunit specific antibodies used in this study. (B) COS-1 cells were seeded into 6-well plates and transiently transfected with pCMV-AMPKβ1, pCMV-AMPKγ1 and either pCMV-FLAG-AMPKα2 WT or pCMV-FLAG-AMPKα2/α1 LOOP chimera using FuGENE HD.
After 24 h cells were treated with the indicated compounds for 1 h and kinase activity determined in anti-FLAG immunoprecipitates under standard conditions. […]
Mouse hepatocytes were incubated with the indicated compounds in the absence (Resting) or presence of 10 mU/ml insulin for 60 min. Lysates were analysed by Western blotting using the indicated antibodies. […]
Yeast acetate CoA ligase (Sigma) was assayed in reactions containing 50 mM TES pH 7.4, 0.1 mM EDTA, 5 mM MgCl2, 4 mM ATP, 0.2 mM coenzyme A, 5 mM DTT and increasing concentrations of C2 and C13 (0 – 100 μM). The formation of pyrophosphate (PPi) was monitored by reduction of PPi-molybdate complexes as described in Methods. […]

Assay [1] concerns primary mouse hepatocytes. As to the kind of experiment: Fatty acid esterification, [3H]palmitic acid incorporation into triglycerides. Type of assay: cell-based. To be noted: 30 min treatment, then 60 min labeling. How it is done: Figure 5 C13 Inhibits Lipid Synthesis and Fatty Acid Esterification in Mouse Hepatocytes in an AMPK-Dependent Manner (A) Mouse hepatocytes were treated with the indicated concentrations of C13 and labeled with [1-^14C]acetate for 3 hr. A769662 (100 μM) and AICAR (0.5 mM) were included as positive controls. Rates of fatty acid and sterol synthesis were estimated by incorporation into saponifiable and nonsaponifiable lipids. Results are expressed as the mean acetate incorporated in micromoles per gram-hour ± SD and are representative of two independent experiments. (B) Mouse hepatocytes were treated with the indicated compounds for 30 min and labeled with media containing 0.5 mM palmitic acid (1 mCi⋅mmol^−1 [9,10-^3H]palmitic acid) for an additional 60 min. Incorporation into triglyceride was determined as described in Experimental Procedures and results are expressed as palmitate incorporated in micromoles per gram-hour ± SD and are representative of three independent experiments. […] Results are expressed as percentage WT vehicle and represent the mean ± SD for three independent experiments. […]
Fatty acid esterification was determined by labeling primary hepatocytes with [9,10-^3H(N)]palmitate. […] Lipids were stained with iodine vapor and triglyceride eluted from TLC scrapings with 1:1 ethanol:Triton X-100, and the incorporation of [^3H] was determined by scintillation counting.

By IC50 is commonly meant the point on the concentration scale where inhibition reaches its midpoint. A lower IC50 goes with inhibition by little substance. On to `CC(C)C(=O)OCOP(=O)(OCOC(=O)C(C)C)c1ccc(C2=NOC(=O)C2)o1` [Compound C13], for which 33 ± 2.2 µM corresponded to half-maximal inhibition at Yeast acetate CoA ligase (IC50). For the same compound, in assay [1], the fatty acid esterification entry is given as “inhibited”.
